Starred links: 1 amine or outer side, 2 acyl side, 3 side chain; linkers in the order of their positions; H or OH if unused. Non-standard residues stand in square brackets, D forms with d. Residues, ends and D or L forms follow the SMILES beside them. No end group written: not given here. Phe(2-(3-thienyl)) = O=C([C@H](Cc1ccccc1-c1ccsc1)N[*:1])[*:2]; Phe(2-Ph) = N[C@@H](Cc1ccccc1-c1ccccc1)C(=O)O; Dmt = Cc1cc(O)cc(C)c1C[C@H](N)C(=O)O
B1: Dmt-D-Ala-Phe(2-(3-thienyl))-Gly-NH2 (peptide)
peptide: [Dmt][dA][Phe(2-(3-thienyl))]G-NH2
modifications: N-terminus assumed
SMILES: Cc1cc(O)cc(C)c1C[C@H](N)C(=O)N[C@H](C)C(=O)N[C@@H](Cc1ccccc1-c1ccsc1)C(=O)NCC(N)=O
B2: Dmt-D-Ala-Phe-Gly-NH2 (peptide)
peptide: [Dmt][dA]FG-NH2
modifications: N-terminus assumed
SMILES: Cc1cc(O)cc(C)c1C[C@H](N)C(=O)N[C@H](C)C(=O)N[C@@H](Cc1ccccc1)C(=O)NCC(N)=O

Assays:
DOP = DOP (Homo sapiens, UniProt P41143); experiment: EPAC cAMP BRET-based biosensor assay, DOP; assay type: cell-based
rats = experiment: Tail-flick test on rats after intrathecal administration; assay type: in vivo, rat
MOP = MOP (Homo sapiens, UniProt P35372); experiment: EPAC cAMP BRET-based biosensor assay, MOP; assay type: cell-based
Chain of MOP (P35372 whole entry): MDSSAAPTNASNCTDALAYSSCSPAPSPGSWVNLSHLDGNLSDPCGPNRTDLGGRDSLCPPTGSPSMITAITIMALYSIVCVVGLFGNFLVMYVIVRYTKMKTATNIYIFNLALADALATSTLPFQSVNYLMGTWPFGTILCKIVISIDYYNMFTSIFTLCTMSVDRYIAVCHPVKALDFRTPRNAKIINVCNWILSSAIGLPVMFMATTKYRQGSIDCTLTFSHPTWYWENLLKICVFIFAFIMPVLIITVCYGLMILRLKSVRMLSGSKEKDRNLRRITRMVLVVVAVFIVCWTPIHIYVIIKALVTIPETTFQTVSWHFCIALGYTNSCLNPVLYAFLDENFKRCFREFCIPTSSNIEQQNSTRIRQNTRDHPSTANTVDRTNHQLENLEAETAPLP

[1] = system: guinea pig ileum (GPI), MOP; conditions: read-out: IC50 (GPI); agonist potency
μ opioid receptor (MOP) = μ opioid receptor (MOP) (Homo sapiens, UniProt P35372); assay type: binding; conditions: for Selectivity IC50δ/IC50μ: ratio DOP IC50 / MOP IC50
Chain of μ opioid receptor (MOP) (P35372 whole entry, species assumed): as the sequence (P35372 whole entry) above

δ opioid receptor (DOP) = δ opioid receptor (DOP) (Homo sapiens, UniProt P41143); assay type: binding
μ opioid receptor [2] = molecular target: μ opioid receptor (UniProt P35372)
μ opioid receptor [3] = molecular target: μ opioid receptor (UniProt P35372); remark: listed apart in the source
δ opioid receptor [4] = molecular target: δ opioid receptor (UniProt P41143)
μ opioid receptor [5] = molecular target: μ opioid receptor (UniProt P35372); experiment: radioligand binding
δ opioid receptor [6] = molecular target: δ opioid receptor (UniProt P41143); experiment: radioligand binding
δ opioid receptor [7] = molecular target: δ opioid receptor (UniProt P41143); remark: listed apart in the source

Row | Molecule | EC50 (DOP) [nM] | Duration of analgesic action on thermal nociception (rats) | EC50 (MOP) [nM] | IC50 [1] [nM] | IC50 (μ opioid receptor (MOP)) [nM] | Selectivity IC50δ/IC50μ (μ opioid receptor (MOP)) | IC50 (δ opioid receptor (DOP)) [nM] | also measured
1 | Cc1cc(O)cc(C)c1C[C@H](N)C(=O)N[C@H](C)C(=O)N[C@@H](Cc1ccccc1)C(=O)NCC(N)=O [Compound 20, Dmt-D-Ala-Phe-Gly-NH2] (H-[Dmt][dA]FG-NH2) | 2.4 ± 1 | exceeding 60 min | 0.012 ± 0.0007 | 1.5 ± 0.12 | 0.14 ± 0.05 | 161 | 22.6 ± 4.6 | Effectiveness in reversing nociceptive behavior relative to DAMGO (rats): 10 times; Fold increase in MOP affinity compared to DAMGO (μ opioid receptor (MOP)): 10 fold
2 | Cc1cc(O)cc(C)c1C[C@H](N)C(=O)N[C@H](CCCNC(=N)N)C(=O)N[C@@H](Cc1ccccc1-c1ccc(C(F)(F)F)cc1)C(=O)NCC(N)=O [Compound 11, Dmt-D-Arg-Phe(2-(4-CF3-phenyl))-Gly-NH2] | 26.8 ± 6 |  | 0.12 ± 0.05 | 1.26 ± 0.17 | 0.07 ± 0.09 | 560 | 39.2 ± 17 | 
3 | Cc1cc(O)cc(C)c1C[C@H](N)C(=O)N[C@H](C)C(=O)N[C@@H](Cc1ccccc1-c1ccccc1)C(=O)NCC(N)=O [Compound 15, Dmt-D-Ala-Phe(2-phenyl)-Gly-NH2] (H-[Dmt][dA][Phe(2-Ph)]G-NH2) |  | exceeding 60 min |  |  |  |  |  | 
4 | Cc1cc(O)cc(C)c1C[C@H](N)C(=O)N[C@H](CCCNC(=N)N)C(=O)N[C@@H](Cc1ccccc1-c1ccc(F)cc1)C(=O)NCC(N)=O [Compound 12, Dmt-D-Arg-Phe(2-(4-F-phenyl))-Gly-NH2] |  |  |  | 0.801 ± 0.086 | 0.47 ± 0.06 | 925 | 435 ± 26 | 
5 | CC(C)=Cc1ccccc1C[C@H](NC(=O)[C@@H](CCCNC(=N)N)NC(=O)[C@@H](N)Cc1c(C)cc(O)cc1C)C(=O)NCC(N)=O [Compound 14] |  | exceeding 60 min |  |  |  |  |  | 
6 | Cc1cc(O)cc(C)c1C[C@H](N)C(=O)N[C@H](CCCNC(=N)N)C(=O)N[C@@H](Cc1ccccc1)C(=O)NCC(N)=O [Compound 19, Dmt-D-Arg-Phe-Gly-NH2] (H-[Dmt][dR]FG-NH2) | 1.13 ± 0.2 | exceeding 60 min | 0.008 ± 0.002 | 2.26 ± 0.37 | 0.1 ± 0.06 | 140 | 14 ± 2.7 | Effectiveness in reversing nociceptive behavior relative to DAMGO (rats): 10 times; Fold increase in MOP affinity compared to DAMGO (μ opioid receptor (MOP)): 10 fold
7 | C=Cc1ccccc1C[C@H](NC(=O)[C@@H](C)N(C)C(=O)[C@@H](N)Cc1c(C)cc(O)cc1C)C(=O)NCC(N)=O [Compound 18, Dmt-N-Me-D-Ala-Phe(2-vinyl)-Gly-NH2] | 4.4 ± 2 |  | 0.003 ± 0.004 | 0.641 ± 0.045 | 0.36 ± 0.09 | 165 | 59.4 ± 0.8 | 
8 | Cc1cc(O)cc(C)c1C[C@H](N)C(=O)N[C@H](CCCNC(=N)N)C(=O)N[C@@H](Cc1ccccc1-c1ccc(Cl)cc1)C(=O)NCC(N)=O [Compound 13, Dmt-D-Arg-Phe(2-(4-Cl-phenyl))-Gly-NH2] |  |  |  | 2.39 ± 0.09 | 0.35 ± 0.06 | 989 | 346 ± 10 | 
9 | B1 |  |  |  |  |  |  |  | EPAC MOP EC50 (EPAC cAMP BRET-based biosensor assay) (μ opioid receptor [2]): 34.8 nM; IC50 in the guinea pig ileum (GPI) assay (μ opioid receptor [3]): 1.27 nM; IC50 in the mouse vas deferens (MVD) assay (δ opioid receptor [4]): 2.16 nM; IC50 (μ opioid receptor [5]): 240 nM; IC50 (δ opioid receptor [6]): 687 nM
10 | B2 |  |  |  |  |  |  |  | EPAC MOP EC50 (EPAC cAMP BRET-based biosensor assay) (μ opioid receptor [2]): 0.012 nM; EPAC DOP EC50 (EPAC cAMP BRET-based biosensor assay) (δ opioid receptor [7]): 2.4 nM; IC50 in the guinea pig ileum (GPI) assay (μ opioid receptor [3]): 1.5 nM; IC50 in the mouse vas deferens (MVD) assay (δ opioid receptor [4]): 1.15 nM

From publication PMC6005765 (Bioorganic & medicinal chemistry letters, 2018)
